The subject of test [1] is barnyard grass. Description: Test Example 3: herbicidal effect by foliage application, Wagner pot (Table 18, symbol H). Type of test: in vivo, barnyard grass (Echinochloa crus-galli). The following applies: for herbicidal effect on barnyard grass (H): 320 g/ha. The method, boiled down: (§1)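 Plants were sown in alluvial soil held under 0.1–0.5 cm standing water and grown 14 days in a greenhouse at 25–30 °C. An emulsifiable formulation, water-diluted to the set dose, was then sprayed onto the foliage, and effects were scored three weeks later using previously defined criteria.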

The test system of the next test is Chinese sprangletop. Nature of the test: Test Example 3: herbicidal effect by foliage application, Wagner pot (Table 18, symbol D). Type of test: in vivo, chinese sprangletop (Leptochloa chinensis). The following applies: for herbicidal effect on Chinese sprangletop (D): 320 g/ha. The method, boiled down:
as §1

A further test relates to rice flat sedge. Nature of the test: Test Example 3: herbicidal effect by foliage application, Wagner pot (Table 18, symbol E). Format: in vivo, rice flat sedge (Cyperus iria). The conditions noted are these: for herbicidal effect on rice flat sedge (E): 320 g/ha. The method, boiled down:
as §1

A further test deals with southern crabgrass. Description: Test Example 5: herbicidal effect by foliage application, plastic box (Table 20, symbol F). Format: in vivo, southern crabgrass (Digitaria ciliaris). The conditions noted are these: 320 g/ha, evaluated three weeks after application; for herbicidal effect on F: southern crabgrass (evaluation grade 0-5): foliage application after 14-day growth. The method, boiled down: (§2)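 Foliar spray test: emulsion formulation diluted in water to a set application rate, sprayed onto 14-day-old plants raised in diluvial soil at 25° C to 30° C under glass. Both herbicidal effect and crop effect rated visually three weeks later.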

The test system of a further test is green foxtail. Description: Test Example 5: herbicidal effect by foliage application, plastic box (Table 20, symbol G). The conditions noted are these: 320 g/ha, evaluated three weeks after application; for herbicidal effect on G: green foxtail (evaluation grade 0-5): foliage application after 14-day growth. Format: in vivo, green foxtail (Setaria viridis). The method, boiled down: as §2

The subject of test [2] is barnyard grass. Nature of the test: Test Example 5: herbicidal effect by foliage application, plastic box (Table 20, symbol H). Type of test: in vivo, barnyard grass (Echinochloa crus-galli). The conditions noted are these: 320 g/ha, evaluated three weeks after application; for herbicidal effect on H: barnyard grass (evaluation grade 0-5): foliage application after 14-day growth. The method in brief:
as §2

Another test relates to wild oat. Nature of the test: Test Example 5: herbicidal effect by foliage application, plastic box (Table 20, symbol I). Format: in vivo, wild oat (Avena fatua). The following applies: 320 g/ha, evaluated three weeks after application; for herbicidal effect on I: wild oat (evaluation grade 0-5): foliage application after 14-day growth. The method in brief:
as §2

The subject of another test is blackgrass. Description: Test Example 5: herbicidal effect by foliage application, plastic box (Table 20, symbol J). Format: in vivo, blackgrass (Alopecurus myosuroides). The conditions noted are these: 320 g/ha, evaluated three weeks after application; for herbicidal effect on J: blackgrass (evaluation grade 0-5): foliage application after 14-day growth. The method, boiled down:
as §2

Another test has as its system Italian ryegrass. Nature of the test: Test Example 5: herbicidal effect by foliage application, plastic box (Table 20, symbol K). Type of test: in vivo, Italian ryegrass (Lolium multiflorum). The conditions noted are these: 320 g/ha, evaluated three weeks after application; for herbicidal effect on K: Italian ryegrass (evaluation grade 0-5): foliage application after 14-day growth. The method, boiled down: as §2

In the next test the test system is windgrass. Nature of the test: Test Example 5: herbicidal effect by foliage application, plastic box (Table 20, symbol L). Type of test: in vivo, windgrass (Apera spica-venti). The conditions noted are these: 320 g/ha, evaluated three weeks after application; for herbicidal effect on L: windgrass (evaluation grade 0-5): foliage application after 14-day growth. The method in brief: as §2

The next test concerns velvetleaf. Description: Test Example 5: herbicidal effect by foliage application, plastic box (Table 20, symbol M). The following applies: 320 g/ha, evaluated three weeks after application; for herbicidal effect on M: velvetleaf (evaluation grade 0-5): foliage application after 14-day growth. Type of test: in vivo, velvetleaf (Abutilon theophrasti). The method in brief:
as §2

The test system of a further test is redroot pigweed. Description: Test Example 5: herbicidal effect by foliage application, plastic box (Table 20, symbol N). Format: in vivo, redroot pigweed (Amaranthus retroflexus). The conditions noted are these: 320 g/ha, evaluated three weeks after application; for herbicidal effect on N: redroot pigweed (evaluation grade 0-5): foliage application after 14-day growth. The method, boiled down: as §2

In another test the test system is lambsquarters. Nature of the test: Test Example 5: herbicidal effect by foliage application, plastic box (Table 20, symbol O). Format: in vivo, lambsquarters (Chenopodium album). The following applies: 320 g/ha, evaluated three weeks after application; for herbicidal effect on O: lambsquarters (evaluation grade 0-5): foliage application after 14-day growth. The method in brief:
as §2

The next test concerns chickweed. Nature of the test: Test Example 5: herbicidal effect by foliage application, plastic box (Table 20, symbol P). Type of test: in vivo, common chickweed (Stellaria media). The conditions noted are these: 320 g/ha, evaluated three weeks after application; for herbicidal effect on P: chickweed (evaluation grade 0-5): foliage application after 14-day growth. The method, boiled down:
as §2

A further test has as its system false cleavers. Nature of the test: Test Example 5: herbicidal effect by foliage application, plastic box (Table 20, symbol Q). Type of test: in vivo, false cleavers (Galium spurium). The following applies: 320 g/ha, evaluated three weeks after application; for herbicidal effect on Q: false cleavers (evaluation grade 0-5): foliage application after 14-day growth. The method, boiled down: as §2

A further test deals with persian speedwell. Description: Test Example 5: herbicidal effect by foliage application, plastic box (Table 20, symbol R). Format: in vivo, Persian speedwell (Veronica persica). The conditions noted are these: 320 g/ha, evaluated three weeks after application; for herbicidal effect on R: persian speedwell (evaluation grade 0-5): foliage application after 14-day growth. The method, boiled down:
as §2

Where [3] appears, read: amount of applied herbicide 320 g/ha.

Regarding `CCCC(=O)Oc1c(C)nn(C)c(=O)c1-c1c(-c2ccc3c(c2)OCCO3)sc2ccc(C)cc12` [2-159], the “herbicidal effect on H: barnyard grass” value in the test on barnyard grass [1] (setting [3]) is on record as 0 (Herbicidal rate of 5% or less (almost no effect)). Moreover, the “herbicidal effect on D: Chinese sprangletop” value in the test on Chinese sprangletop (setting [3]) is given as 0 (Herbicidal rate of 5% or less (almost no effect)). The “herbicidal effect on E: rice flat sedge” value in the test on rice flat sedge (setting [3]) was 3 (Herbicidal rate of 40% or more and less than 70%). The “herbicidal effect on F: southern crabgrass (criteria 0-5)” value in the test with southern crabgrass (foliage application) was 0 (Herbicidal rate of 5% or less (almost no effect)). In the test on green foxtail (foliage application), the “herbicidal effect on G: green foxtail (criteria 0-5)” value is on record as 0 (Herbicidal rate of 5% or less (almost no effect)). The “herbicidal effect on H: barnyard grass (criteria 0-5)” value in the test with barnyard grass [2] (foliage application) is on record as 0 (Herbicidal rate of 5% or less (almost no effect)). Further, the “herbicidal effect on I: wild oat (criteria 0-5)” value with wild oat (foliage application) was 0 (Herbicidal rate of 5% or less (almost no effect)). Besides, the “herbicidal effect on J: blackgrass (criteria 0-5)” value in the test on blackgrass (foliage application) is listed as 0 (Herbicidal rate of 5% or less (almost no effect)). The “herbicidal effect on K: Italian ryegrass (criteria 0-5)” value in the test on Italian ryegrass (foliage application) is on record as 0 (Herbicidal rate of 5% or less (almost no effect)). Also, the “herbicidal effect on L: windgrass (criteria 0-5)” value in the test with windgrass (foliage application) is given as 0 (Herbicidal rate of 5% or less (almost no effect)). Also, the “herbicidal effect on M: velvetleaf (criteria 0-5)” value in the test on velvetleaf (foliage application) was 2 (Herbicidal rate of 20% or more and less than 40%). For the same compound, the “herbicidal effect on N: redroot pigweed (criteria 0-5)” value in the test with redroot pigweed (foliage application) was 5 (Herbicidal rate of 90% or more (almost completely withered)). Besides, the “herbicidal effect on O: lambsquarters (criteria 0-5)” value in the test on lambsquarters (foliage application) is listed as 0 (Herbicidal rate of 5% or less (almost no effect)). Moreover, in the test on chickweed (foliage application), the “herbicidal effect on P: chickweed (criteria 0-5)” value is 4 (Herbicidal rate of 70% or more and less than 90%). Moreover, the “herbicidal effect on Q: false cleavers (criteria 0-5)” value in the test on false cleavers (foliage application) is on record as 0 (Herbicidal rate of 5% or less (almost no effect)). For the same compound, in the test on persian speedwell (foliage application), the “herbicidal effect on R: persian speedwell (criteria 0-5)” value was 4 (Herbicidal rate of 70% or more and less than 90%).

Take `CCCC(=O)Oc1c(C)nn(C)c(=O)c1-c1c(-c2ccc(C(F)(F)F)cc2)sc2cc(Cl)ccc12` [3-146]: in the test on barnyard grass [1], the “herbicidal effect on barnyard grass (H)” value was 3 (Herbicidal rate of 40% or more and less than 70%). In addition, in the test on Chinese sprangletop, the “herbicidal effect on Chinese sprangletop (D)” value is 3 (Herbicidal rate of 40% or more and less than 70%). The “herbicidal effect on rice flat sedge (E)” value in the test with rice flat sedge was 3 (Herbicidal rate of 40% or more and less than 70%). Also, the “herbicidal effect on F: southern crabgrass (evaluation grade 0-5)” value with southern crabgrass was 1 (Herbicidal rate of 5% or more and less than 20%). Besides, the “herbicidal effect on G: green foxtail (evaluation grade 0-5)” value in the test with green foxtail was 2 (Herbicidal rate of 20% or more and less than 40%). The “herbicidal effect on H: barnyard grass (evaluation grade 0-5)” value with barnyard grass [2] is given as 0 (Herbicidal rate of 5% or less (almost no effect)). Further, the “herbicidal effect on I: wild oat (evaluation grade 0-5)” value in the test on wild oat is 0 (Herbicidal rate of 5% or less (almost no effect)). Also, the “herbicidal effect on J: blackgrass (evaluation grade 0-5)” value with blackgrass is 0 (Herbicidal rate of 5% or less (almost no effect)). Besides, in the test on Italian ryegrass, the “herbicidal effect on K: Italian ryegrass (evaluation grade 0-5)” value is reported as 0 (Herbicidal rate of 5% or less (almost no effect)). The “herbicidal effect on L: windgrass (evaluation grade 0-5)” value in the test with windgrass is given as 0 (Herbicidal rate of 5% or less (almost no effect)). Also, the “herbicidal effect on M: velvetleaf (evaluation grade 0-5)” value with velvetleaf is on record as 0 (Herbicidal rate of 5% or less (almost no effect)). Also, the “herbicidal effect on N: redroot pigweed (evaluation grade 0-5)” value with redroot pigweed was 3 (Herbicidal rate of 40% or more and less than 70%). Further, the “herbicidal effect on O: lambsquarters (evaluation grade 0-5)” value with lambsquarters is 3 (Herbicidal rate of 40% or more and less than 70%). For the same compound, in the test on chickweed, the “herbicidal effect on P: chickweed (evaluation grade 0-5)” value was 5 (Herbicidal rate of 90% or more (almost completely withered)). The “herbicidal effect on Q: false cleavers (evaluation grade 0-5)” value with false cleavers was 1 (Herbicidal rate of 5% or more and less than 20%). Also, in the test with persian speedwell, the “herbicidal effect on R: persian speedwell (evaluation grade 0-5)” value was 4 (Herbicidal rate of 70% or more and less than 90%).

Consider `COc1ccccc1-c1sc2c(OC)cccc2c1-c1c(O)c(C)nn(C)c1=O` [4-039], for which the “herbicidal effect on barnyard grass (H)” value in the test with barnyard grass [1] is 4 (Herbicidal rate of 70% or more and less than 90%). Also, in the test with Chinese sprangletop, the “herbicidal effect on Chinese sprangletop (D)” value was 3 (Herbicidal rate of 40% or more and less than 70%). Also, the “herbicidal effect on rice flat sedge (E)” value with rice flat sedge is 3 (Herbicidal rate of 40% or more and less than 70%). In the test with southern crabgrass, the “herbicidal effect on F: southern crabgrass (evaluation grade 0-5)” value is 3 (Herbicidal rate of 40% or more and less than 70%). Also, in the test with green foxtail, the “herbicidal effect on G: green foxtail (evaluation grade 0-5)” value was 4 (Herbicidal rate of 70% or more and less than 90%). Moreover, in the test with barnyard grass [2], the “herbicidal effect on H: barnyard grass (evaluation grade 0-5)” value was 3 (Herbicidal rate of 40% or more and less than 70%). Also, in the test on wild oat, the “herbicidal effect on I: wild oat (evaluation grade 0-5)” value was 3 (Herbicidal rate of 40% or more and less than 70%). In addition, the “herbicidal effect on J: blackgrass (evaluation grade 0-5)” value with blackgrass was 2 (Herbicidal rate of 20% or more and less than 40%). Besides, the “herbicidal effect on K: Italian ryegrass (evaluation grade 0-5)” value in the test on Italian ryegrass was 0 (Herbicidal rate of 5% or less (almost no effect)). The “herbicidal effect on L: windgrass (evaluation grade 0-5)” value in the test on windgrass is 3 (Herbicidal rate of 40% or more and less than 70%). The “herbicidal effect on M: velvetleaf (evaluation grade 0-5)” value with velvetleaf is 4 (Herbicidal rate of 70% or more and less than 90%). Also, the “herbicidal effect on N: redroot pigweed (evaluation grade 0-5)” value with redroot pigweed was 3 (Herbicidal rate of 40% or more and less than 70%). The “herbicidal effect on O: lambsquarters (evaluation grade 0-5)” value in the test on lambsquarters is 2 (Herbicidal rate of 20% or more and less than 40%). Further, the “herbicidal effect on P: chickweed (evaluation grade 0-5)” value in the test with chickweed is 2 (Herbicidal rate of 20% or more and less than 40%). Also, the “herbicidal effect on Q: false cleavers (evaluation grade 0-5)” value with false cleavers is 3 (Herbicidal rate of 40% or more and less than 70%). Further, in the test with persian speedwell, the “herbicidal effect on R: persian speedwell (evaluation grade 0-5)” value was 3 (Herbicidal rate of 40% or more and less than 70%).
